One data set deals with HEK293T cells. The data set can be described thus: MTT cytotoxicity assay against HEK293T. It counts as cell-based. The note with it: Homo sapiens, HEK-293T, 48 h, read-out: Percentage of inhibition against treated concentrations. On the procedure: (§1) Anticancer activity of 7a–s has been evaluated by MTT [3-(4,5-dimethylthiazol-2-yl)-2,5-diphenyl-tetrazolium bromide] assay and the cell lines HT29 (ATCC: HTB-38), MDA-MB-231 (ATCC: HTB-26), HEK293T (ATCC: CRL-3216) were procured from American type cell culture collection (ATCC), Manassas, USA and other chemicals were procured from Sigma-Aldrich. Then absorbance (used as a measure of cell proliferation) was measured at 570 nm with a kinetic micro-plate reader (BioTek, Winooski, Vermont).
(§2) Having synthesized a series of the title compounds, all of them were screened for their in vitro anticancer profiles against a panel of human colorectal adenocarcinoma (HT29), human breast adenocarcinoma (MDA-MB-231) and mutated Human embryonic kidney 293 (HEK293T) cancer cell lines by using MTT colourmetric assay as per Johan van Meerloo protocol. The three cell lines were cultured in […] medium and supplemented with 10% FBS followed by 100 units/mL penicillin/ streptomycin and were cultured at 37 °C in 5% CO2. Cell proliferation of the growing cells was measured in terms of logarithmic standards. Analytically, all the cultured cells were plated onto 96 well plates at a starting density of 10^5 cells. Then all the cells were treated with title compounds 7a–s for a period of 48 h with different concentrations. After this incubation cell proliferation inhibition was determined by MTT assay and all the experiments were conducted in triplicates and readings were presented as mean ± SD and provided in Tables 1, 2 and 3.

Another data set deals with MDA-MB-231 cells. In words: MTT cytotoxicity assay against MDA-MB-231. To be noted: Homo sapiens, 48 h, read-out: Percentage of inhibition against treated concentrations; for activity at 1 µM: MDAMB231, 1 µM; for activity at 5 µM: MDAMB231, 5 µM; for activity at 10 µM: MDAMB231, 10 µM; for activity at 25 µM: MDAMB231, 25 µM; for activity at 50 µM: MDAMB231, 50 µM. It counts as cell-based. On the procedure: as §1, §2
Background: Tetrazolium dyes change colour on reduction, which living cells bring about.

For a further data set, the system named is HT29 cells. The data set can be described thus: MTT cytotoxicity assay against HT29. To be noted: Homo sapiens, 48 h, read-out: Percentage of inhibition against treated concentrations; for activity at 1 µM: HT-29, HT29, 1 µM; for activity at 5 µM: HT-29, HT29, 5 µM; for activity at 10 µM: HT-29, HT29, 10 µM; for activity at 25 µM: HT-29, HT29, 25 µM; for activity at 50 µM: HT-29, HT29, 50 µM. It counts as cell-based. As to the method: as §1, §2

In the case of `O=C(c1ccncc1)N1CCn2c3ccccc3c(=O)c3cccc1c32` [Compound 7c, 3-Isonicotinoyl-2,3 dihydropyrazino[3,2,1-de]acridin-7(1H)-one], the melting point (commonly the temperature of the solid-liquid transition) is 233 to 235 °C. Also, in the data set on HEK293T cells, the activity at 1 µM was 96.63 ± 0.53%, the activity at 5 µM was 94.28 ± 0.53%, the activity at 10 µM is 90.18 ± 0.38% and the activity at 25 µM is 83.28 ± 0.21%. For the same compound, the activity at 50 µM with HEK293T cells was 49.08 ± 0.23%. In the data set on MDA-MB-231 cells, the activity at 1 µM turned out to be 86.8 ± 0.96%, the activity at 5 µM came out at 57.39 ± 0.32%, the activity at 10 µM was determined as 47.2 ± 0.93% and the activity at 25 µM was 38.69 ± 0.28%. The activity at 50 µM in the data set on MDA-MB-231 cells was 22.8 ± 0.89%. In addition, in the data set on HT29 cells, the activity at 1 µM is 90.02 ± 0.31%, the activity at 5 µM turned out to be 66.2 ± 0.83%, the activity at 10 µM turned out to be 52.9 ± 0.84% and the activity at 25 µM worked out at 40.37 ± 0.15%. In addition, the activity at 50 µM with HT29 cells amounted to 20.79 ± 0.08%.

As to `O=C(c1ccccc1)N1CCn2c3ccccc3c(=O)c3cccc1c32` [Compound 7l, 3-Benzoyl-2,3-dihydro-1H,7H-pyrazino[3,2,1-de]acridin-7-one], the melting point lay within 253 to 255 °C. In the data set on HEK293T cells, the activity at 1 µM was 96.44 ± 0.31%, the activity at 5 µM is 94.13 ± 0.23%, the activity at 10 µM was determined as 89.65 ± 0.12% and the activity at 25 µM came out at 82.83 ± 0.54%. The activity at 50 µM with HEK293T cells is 48.8 ± 0.67%. Besides, in the data set on MDA-MB-231 cells, the activity at 1 µM is 95.13 ± 0.85%, the activity at 5 µM came out at 82.38 ± 0.27%, the activity at 10 µM worked out at 75.3 ± 0.81% and the activity at 25 µM was determined as 65.86 ± 0.47%. The activity at 50 µM in the data set on MDA-MB-231 cells amounted to 38.8 ± 0.88%. Moreover, in the data set with HT29 cells, the activity at 1 µM was 97.17 ± 0.22%, the activity at 5 µM was 83.2 ± 0.99%, the activity at 10 µM turned out to be 76.71 ± 0.06% and the activity at 25 µM was 68.88 ± 0.47%. For the same compound, the activity at 50 µM with HT29 cells is 30.6 ± 0.87%.

The values above are taken from paper PMC7691360, “Synthesis of novel cytotoxic tetracyclic acridone derivatives and study of their molecular docking, ADMET, QSAR, bioactivity and protein binding properties” (Scientific Reports, 2020).
